The values that follow come from patent publication US20230201292A1, “HERBAL FORMULATION FOR THE PREVENTION AND MANAGEMENT OF TYPE-2 DIABETES MELLITUS AND ASSOCIATED MICROVASCULAR COMPLICATIONS” (priority 2021, published 2023).

The assay deals with Streptozotocin (STZ) treated diabetic rats. Nature of the assay: Streptozotocin (STZ) treated diabetic rats: blood glucose, hs CRP, IL-6, adiponectin. It counts as in vivo. To be noted: for Blood glucose level: STZ (65 mg/kg) diabetic rats; for Adiponectin / IL-6 / hs CRP: STZ diabetic rats.

As to `C[C@H]1O[C@H](O[C@H]2[C@H](O)[C@@H](O)[C@@H](O[C@H]3[C@H](O)[C@@H](O)C(O)O[C@@H]3CO)O[C@@H]2CO)[C@H](O)[C@@H](O)[C@@H]1N[C@H]1C=C(CO)[C@@H](O)[C@H](O)[C@H]1O` (stereo partly drawn) [Acarbose], under “7th Days”, the Blood glucose level amounted to 228.33 ± 19.44 mg/day, the Adiponectin amounted to 8.87 ± 2.10 µg/mL, the IL-6 is 2.87 ± 0.25 pg/mL and the “hs CRP” value was 6.78 ± 1.52 mg/L. Under “14th Days”, the Blood glucose level was 192.74 ± 15.18 mg/day, the Adiponectin came to 9.65 ± 1.63 µg/mL, the IL-6 was 2.49 ± 0.32 pg/mL and the “hs CRP” value was 5.43 ± 0.75 mg/L. In addition, for the setting “28th Days”, the Blood glucose level is 157.51 ± 10.24 mg/day, the Adiponectin was found to be 10.23 ± 2.14 µg/mL, the IL-6 amounted to 2.23 ± 0.26 pg/mL and the “hs CRP” value is reported as 4.97 ± 0.87 mg/L.
